In patent US11572373B2, “Maytansinoid-based drug delivery systems” (LADRX CORPORATION, priority 2017, dated 2023):
Like-named read-outs stand apart in the source and are kept apart here. Marks after values point to notes of the source that are not given here.

How the values were obtained:
[1] = Stability of maytansinoids and maytansinoid-HSA conjugates in CD1 mouse plasma; format: in vitro ADME; details: 37° C., 30 μM
Method: (§1) For studying the stability of the maytansinoids as wells as the maytansinoid-HSA conjugates in CD1 and human plasma the compounds were incubated at 37° C. for 24 hours. Remaining free maytansinoid or release of the respective maytansinoid was quantified by LC-MS/MS (or HPLC) at certain time points.
(§2) Pooled CD1 mouse or human plasma (K2EDTA, Innovative research) was centrifuged (1 min at 12,044 g). The supernatant was first filtered through a filter needle (5 μm, sterile, Becton Dickinson) and subsequently through a cellulose acetate membrane (0.45 μm, sterile, Carl Roth). The filtered plasma (1710 μL) was preincubated at 37° C. for 30 min in a heating block. The free maytansinoid or albumin-binding maytansinoid as a 300 μM stock solution in DMSO (190 μL) was added to the preincubated plasma sample to produce a 30 μM solution of the respective maytansinoid or maytansinoid-HSA conjugate. The mixture was allowed to react for 10 min at 37° C. and then at each time point (0, 1, 2, 3, 4, 5, 21, and 24 hours) three samples (70 μL) were taken into a 96-well plate, sealed with a plastic mat, immediately frozen with liquid nitrogen and stored at −20° C. At the end of the experiment, the 96-well plate was thawed at room temperature. The samples (30 μL) were then directly transferred via a multichannel pipette into a 96-well Impact™ protein precipitation plate (Strata®) which was once washed with MeCN (150 μL) and then loaded with the internal standard (120 μL, MeCN containing 5 μg/mL maytansine). The Impact™ precipitation plate was sealed with a silicone mat and shaken for 2 min 420 rpm. The Impact™ precipitation plate was then placed onto a 96-well sample manifold and the filtrate was collected into another 96-well plate by applying mild vacuum. The 96-well plate was sealed with a silicone mat and kept at room temperature until LC-MS/MS quantification. The filtrate was injected into the LC-MS for quantification using the MRM mode. […]

[2] = Stability of maytansinoids and maytansinoid-HSA conjugates in human plasma; format: in vitro ADME; details: 37° C., 30 μM
Method: as §1, §2

[3] = In vitro cytotoxicity in different cell lines using the CellTiter-Blue Cell Viability Assay; format: cell-based, human; details: Homo sapiens; geometric mean over the n cell lines tested, 96 h treatment, CellTiter-Blue; read-out: Geomean IC50
[4] = Stability and release kinetics of maytansinoid-HSA conjugates in buffer solution at pH 4.0 and pH 7.4; format: physicochemical; details: maytansinoid-HSA conjugate, PBS pH 7.4, 37° C., measured at 100 μM
Method: For preparing HSA conjugates of albumin-binding maytansinoids, HSA (200 μM: 361.8 μL, 1078 μM free Cys34; 100 μM: 180.9 μL, 1078 μM free Cys34) was diluted with PBS buffer (4 mM sodium phosphate, 150 mM NaCl, pH 7.4) (200 μM: 678.2 μL; 100 μM: 859.1 μL) and DMSO (200 μM: 130.0 μL; 100 μM: 195.0 μL) and incubated in a heating block at 37° C. for 30 minutes. The albumin-binding maytansinoid was added as a 2 mM stock solution in DMSO (200 μM: 130.0 μL; 100 μM: 65.0 μL) to the preincubated HSA sample to produce a 200 μM or 100 μM solution of maytansinoid-prodrug and 300 μM or 150 μM of free Cys34. The mixture having a pH of 7.4 was allowed to react for 10 min at 37° C. and was then analyzed hourly for 24 hours by RP-HPLC (Phenomenex Aeris WP XB-C18, 3.6 μm, 250×4.6 mm).
For studying the release kinetics at pH 4.0 the mixture was acidified with a mixture of 50 mM sodium acetate buffer pH 3.0 (200 μM: 119.3 μL; 100 μM: 125.2 μL) and 1 M HCl (200 μM: 12.7 μL; 100 μM: 6.8 μL) to reach pH 4.0. The mixture was subsequently analyzed hourly for 24 hours by RP-HPLC (Phenomenex Aeris WP XB-C18, 3.6 μm, 250×4.6 mm).
The following RP-HPLC conditions were used: Phenomenex Aeris WP XB-C18 3.6 μm, 250×4.6 mm; eluent A (100% 20 mM Tris buffer pH 8.0) and eluent B (90:10, MeCN: water) eluting with a gradient of eluent B (25% 0-0.5 min, 25-35% 0.5-2.5 min, 35-85% 2.5-16 min, 85-95% 16-17 min, 95% 17-20 min, 95-25% 20-25 min, 25% 25-30 min, flow rate 1.0 mL/min). Column oven temperature 37° C.; autosampler temperature 37° C.; 20 μL of injection volume.
To quantify the percentage of free drug released, standard curves of the free maytansinoids were prepared at different concentrations (200 μM, 100 μM, 50 μM, 25 μM and 12.5 μM). The area under the curve (AUC) was determined at 250 nm.

[5] = biological target: T1, albumin (Homo sapiens, UniProt P02768); assay: in vitro; format: in vitro ADME; details: 37° C., 12.0 μM, read-out: % bound (converted)
T1 construct: tissue Zen-Bio; host or cells: pooled human whole blood (K2EDTA, 36 donors) and plasma prepared from it
Method: To study the binding kinetics of the albumin-binding maytansinoids in pooled human plasma and pooled human whole blood, the compounds were incubated together with pooled human plasma at 37° C. and samples were taken at specified time points. Remaining albumin-binding maytansinoids were quantitated by HPLC.
To study the binding kinetics in human whole blood, the blood (K2EDTA, 36 donors, Zen-Bio; 900 μL) was preincubated at 37° C. for 30 min in a heating block. To study the binding kinetics in pooled human plasma, the pooled whole blood was centrifuged (10 min, 1811 g), the supernatant plasma was collected and then preincubated at 37° C. for 30 min.
The albumin-binding maytansinoid was added to the preincubated whole blood/plasma sample as a 10-fold dilution in PBS of a 1.2 mM stock solution in 2.5% propylene glycol in 10 mM sodium phosphate buffer and 1.48 mM citrate (100 μL) to produce a 12.0 μM solution of the respective albumin-binding maytansinoid. Samples (190 μL) were taken after 15 s, 2 min, 4 min, 8 min and 15 min. The samples were directly added to 760 μL MeCN containing maytansine (5 μg/mL) as an internal standard and vortexed for 1 min. After centrifugation (1 min at 12,044 g) the supernatant (850 μL) was concentrated under high vacuum. The residue was taken up in DMSO/water (1:1 v/v; 95 μL) and then analyzed by RP-HPLC. Percentage of binding was determined by comparison of the area under the curve (AUC) at 220 nm of the albumin-binding maytansinoid relative to a control sample (100% value) in PBS buffer. All experiments were performed in triplicates.
HPLC method: Phenomenex Kinetex Polar C18, 2.6 μm, 100 Å, 150×4.6 mm; eluent A (95:5 5 mM ammonium acetate: MeCN) and eluent B (5:95 5 mM ammonium acetate: MeCN) eluting with a gradient of eluent B (30% 0-0.5 min, 30-95% 0.5-9.0 min, 95% 11.0 min, 95-30% 11.0-14.5 min, 30% 15.0 min, flow rate=1.0 mL/min). Column oven temperature ambient temperature; autosampler temperature 4° C.; 50 μL of injection volume.

[6] = tested on: human tumor xenograft models; assay: Antitumor activity in human tumor xenograft mice models; format: in vivo; details: five human tumor xenograft models in nude mice, i.v. on day 1, 8, 15, and 22
Text: This included starting tumor volumes in the range of approximately 80-110 mm^3 but also initial starting tumor volumes of up to approximately 400 mm^3. Furthermore, in most cases therapy with albumin-binding maytansinoids 30 and 31 induced long-term remissions and a decrease in Relative Tumor Volume (RTV). […] Experimental procedure and the results in the tumor-bearing mice models are described in detail in Examples 11-19 and FIGS. 3-16.
Female immunodeficient NMRI nude mice, from Charles River, received unilateral tumor implants subcutaneously in the left flank while under isoflurane anesthesia with human cancer tumors until tumors were palpable and had reached a volume of 80-200 mm^3 (unless otherwise stated).
Animals were kept in cages, the temperature inside the cages maintained at 25±1° C. with a relative humidity of 45-65% and an air change rate in the cage of 60-fold per hour. They were kept under a 14 h light: 10 h dark, artificial light cycle. The animals were fed with autoclaved Teklad Global 19% Protein Extruded Diet (T.2019S.12) from Envigo RMS SARL and had access to sterile filtered and acidified (pH 2.5) tap water, which was changed twice weekly. Feed and water were provided ad libitum. […] Animals were routinely monitored twice daily on working days and daily on Saturdays and Sundays. […] Relative body weights (RBW) of individual animals were calculated by dividing the individual absolute body weight on day X (BWx) by the individual body weight on the day of randomization multiplied by 100%. The tumor volume was determined by a two-dimensional measurement with calipers on the day of randomization (day 0) and then twice weekly. Tumor volumes were calculated according to the following equation: Tumor Vol [mm^3]=1 [mm]×w^2 [mm^2]×0.5, where “1” is the length and “w” is width of the tumor. The relative volume of an individual tumor on day X (RTVx) was calculated by dividing the absolute individual tumor volume [mm^3] of the respective tumor on day X (Tx) by the absolute individual tumor volume of the same tumor on the day of randomization multiplied by 100%. […]

T1 sequence (P02768 25-609): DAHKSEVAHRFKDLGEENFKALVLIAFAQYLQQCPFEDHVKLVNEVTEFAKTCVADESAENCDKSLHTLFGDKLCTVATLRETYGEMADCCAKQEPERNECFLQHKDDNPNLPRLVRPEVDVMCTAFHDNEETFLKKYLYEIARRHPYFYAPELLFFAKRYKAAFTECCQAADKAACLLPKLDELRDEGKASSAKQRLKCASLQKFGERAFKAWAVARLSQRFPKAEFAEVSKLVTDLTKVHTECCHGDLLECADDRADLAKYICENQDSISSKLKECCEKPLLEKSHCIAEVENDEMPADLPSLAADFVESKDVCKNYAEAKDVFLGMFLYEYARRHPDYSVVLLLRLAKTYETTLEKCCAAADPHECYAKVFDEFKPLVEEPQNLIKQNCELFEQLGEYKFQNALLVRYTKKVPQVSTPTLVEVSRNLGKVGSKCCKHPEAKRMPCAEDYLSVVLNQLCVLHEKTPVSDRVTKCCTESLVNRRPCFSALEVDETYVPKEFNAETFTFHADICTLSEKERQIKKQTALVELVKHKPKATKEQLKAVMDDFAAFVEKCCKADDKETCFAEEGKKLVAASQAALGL

Row | Compound | % of free maytansinoid remaining after 24 h [1] [%] | % of free maytansinoid remaining after 24 h [2] [%] | IC50 [3] [nM] | free maytansinoid after 24 h at pH 7.4 [4] [%**] | fraction unbound ([5]; blood, pooled human whole blood, 15 s) | fraction unbound ([5]; blood, pooled human whole blood, 8 min) | fraction unbound ([5]; plasma, pooled human plasma, 15 s) | fraction unbound ([5]; plasma, pooled human plasma, 8 min) | antitumor activity [6]
1 | COc1cc2cc(c1Cl)N(C)C(=O)C[C@H](OC(=O)Cc1ccc(C(C)=O)cc1F)[C@]1(C)O[C@H]1[C@H](C)[C@@H]1C[C@@](O)(NC(=O)O1)[C@H](OC)/C=C/C=C(\C)C2 [Compound 2] | 71.8 | 74.8 | 0.3 |  |  |  |  |  | 
2 | COc1cc2cc(c1Cl)N(C)C(=O)C[C@H](OC(=O)Cc1ccc(/C(C)=N/NC(=O)c3ccc(NC(=O)CCCCCN4C(=O)C=CC4=O)cc3S(=O)(=O)O)cc1F)[C@]1(C)O[C@H]1[C@H](C)[C@@H]1C[C@@](O)(NC(=O)O1)[C@H](OC)/C=C/C=C(\C)C2 [Compound 30] |  |  |  | 9.6 | 0.017 | 0.015 | 0.036 | 0.015 | partial and complete tumor regressions
3 | COc1cc2cc(c1Cl)N(C)C(=O)C[C@H](OC(=O)[C@H](C)N(C)C(C)=O)[C@]1(C)O[C@H]1[C@H](C)[C@@H]1C[C@@](O)(NC(=O)O1)[C@H](OC)/C=C/C=C(\C)C2 [Maytansine, maytansine, reference compound] |  |  | 0.22 |  |  |  |  |  | principally inactive in the tested models or only showed marginal tumor inhibition
